Measurements from PubChem BioAssay AID652166 (The Scripps Research Institute Molecular Screening Center, 2013).
The source made the active and inactive calls. The rule behind the calls is not given here.

Tested on: NOD2-RIPK2 signaling cell assay, absorbance 620 nm
Assay: NOD2-RIPK2 signaling inhibitors, IC50, late-stage follow-up, cell-based, absorbance 620 nm (AID 652166)

Compound | IC50
O=[N+]([O-])c1cc(S(=O)(=O)N2CCCCCC2)ccc1F | > 10 µM (inactive)
O=[N+]([O-])c1cccc(S(=O)(=O)N2CCCCCC2)c1 | > 10 µM (inactive)
Cc1ccc(C(C[N+](=O)[O-])n2nc(C)cc2C)cc1 (stereo unspecified) | > 10 µM (inactive)
Cc1ccc(S(=O)(=O)N2CCCCCC2)cc1[N+](=O)[O-] | > 10 µM (inactive)
O=S(=O)(c1ccccc1)N1CCCCCC1 | > 10 µM (inactive)
COc1ccc(C(C[N+](=O)[O-])n2nc(C)cc2C)cc1 (stereo unspecified) | > 10 µM (inactive)
O=S(=O)(c1ccc(F)cc1)N1CCCCCC1 | > 10 µM (inactive)
Cc1cc(S(=O)(=O)N2CCCCCC2)ccc1F | > 10 µM (inactive)

Other lines, results leading:

IC50 | Compound
> 10 µM (inactive) | Cc1nc([N+](=O)[O-])c(Br)n1Cc1ccccc1
> 10 µM (inactive) | Cc1ncc([N+](=O)[O-])n1Cc1ccc(Cl)c(Cl)c1
> 10 µM (inactive) | Cc1nc([N+](=O)[O-])c(Br)n1Cc1ccc(Cl)c(Cl)c1
